For two compounds, IC50 results are on record in patent US9072734B2, “Quaternary ammonium salt compounds” (Teijin Pharma Limited, priority 2009, dated 2015).

This test concerns the target T1, human M3 muscarinic receptor (Homo sapiens, UniProt P20309).
T1 construct: expressed in transfected cells; host or cells: CHO-K1
Description: Inhibitory effect on methacholine-induced calcium influx, FLIPR assay, CHO-K1 cells stably expressing the human M3 muscarinic receptor. In kind it is cell-based. Particulars: inhibition of calcium influx induced by methacholine. A digest of the protocol: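 Dye-loaded hM3 CHO-K1 cells were preincubated 180 s with compound solutions prepared at 10 two-fold concentrations (0.01–1000 nM). A 30 nM methacholine solution was then added. Fluorescence was traced for 170 s; max−min signal gave % inhibition against agonist and no-agonist controls, and IC50 came from a four-parameter logistic fit.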

Structures are written as SMILES. Counter-ions that a name gives are not always drawn.

T1 sequence (P20309 whole entry): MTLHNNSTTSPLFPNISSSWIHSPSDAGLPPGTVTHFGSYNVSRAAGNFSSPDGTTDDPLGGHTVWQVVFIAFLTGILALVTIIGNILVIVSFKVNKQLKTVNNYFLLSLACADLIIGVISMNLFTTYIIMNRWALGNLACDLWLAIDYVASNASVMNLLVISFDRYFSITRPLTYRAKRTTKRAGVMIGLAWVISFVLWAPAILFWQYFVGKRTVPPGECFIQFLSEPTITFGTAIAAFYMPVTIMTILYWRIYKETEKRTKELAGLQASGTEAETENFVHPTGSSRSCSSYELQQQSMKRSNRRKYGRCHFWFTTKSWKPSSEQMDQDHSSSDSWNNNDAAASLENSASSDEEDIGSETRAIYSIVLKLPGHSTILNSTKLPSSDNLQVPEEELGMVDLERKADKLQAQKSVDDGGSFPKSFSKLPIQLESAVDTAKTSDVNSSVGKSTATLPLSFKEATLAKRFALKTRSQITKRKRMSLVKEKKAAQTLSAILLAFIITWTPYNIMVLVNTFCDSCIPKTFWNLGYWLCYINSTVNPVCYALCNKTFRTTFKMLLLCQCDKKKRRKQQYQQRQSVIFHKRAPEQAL

For the compound `C[N+]1(C)CCC(OC(=O)Nc2cc(CCC(=O)Nc3ccc(CNC[C@H](O)c4ccc(O)c5[nH]c(=O)ccc45)cc3)ccc2-c2ccccc2)CC1` [Example 1, 4-({[5-(2-{[4-({[(2R)-2-hydroxy-2-(8-hydroxy-2-oxo-1,2-dihydroquinolin-5-yl)ethyl]amino}methyl)phenyl]carbamoyl}ethyl)-2-phenylphenyl]carbamoyl}oxy)-1,1-dimethylpiperidin-1-ium trifluoroacetate], the IC50 was found to be 6.4 nM. To `COc1cc(NC(=O)CCCCc2ccc(-c3ccccc3)c(NC(=O)OC3CC[N+](C)(C)CC3)c2)c(Cl)cc1CNC[C@H](O)c1ccc(O)c2[nH]c(=O)ccc12` [Example 51, 4-({[5-(4-{[2-chloro-4-({[(2R)-2-hydroxy-2-(8-hydroxy-2-oxo-1,2-dihydroquinolin-5-yl)ethyl]amino}methyl)-5-methoxyphenyl]carbamoyl}butyl)-2-phenylphenyl]carbamoyl}oxy)-1,1-dimethylpiperidin-1-ium trifluoroacetate] belongs 13.2 nM.

As a reminder, the IC50 is the concentration that gives 50% inhibition.
